Test results reported in patent US20020110830A1, “VEGF responsive cell-based assay for determining VEGF bioactivity” (priority 2001, published 2002).

Biological target: T1, FLK-1 VEGF receptor (Mus musculus, UniProt P35918)
T1 construct: expressed in transfected cells; host or cells: HeLa (HLR-ELK-1, Stratagene) stably co-transfected with the FLK-1 expression vector; clone #5
Experiment: VEGF responsive luciferase assay in VEGF-receptor stable transfected HLR-ELK-1 cell line (clone #5)
Format: cell-based
Conditions: FIG. 9
Source text: The assay of the present invention utilizes a stable VEGF responsive cell line which comprises HeLa cells which have been stably transfected with a reporter vector having an expressible reporter element and a DNA binding element disposed adjacent thereto. Preferably, the reporter vector includes a gene encoding a detectable gene product which is disposed downstream of a basic promoter element, preferably a TATA box, which is joined to the binding element which is preferably a GAL4 binding element. […]
In general, utilizing known signal transduction relationships and/or pathways, a sample to be assayed for VEGF bioactivity is placed in a container containing the stable cell line as described above. […] Activated FLK-1, which is a known VEGF receptor, then activates MAP kinase (Kroll and Waltenberger, J. Biol. Chem., 1997:272:32521-32527; Doanes et. al., Biochem. Biophys. Res. Comm., 1999;255:545-548. The activated MAP kinase phosphorylates the fusion trans-activation protein (GAL4 DNA binding domain [dbd] fused with ELK-1). The phosphorylated fusion protein binds to the GAL4 DNA binding site of the reported vector activating luciferase expression. Luciferase expression can be detected utilizing techniques well-known in the art. The presence or expression of luciferase indicates VEGF activity in the sample. […]

T1 sequence (P35918 20-1345): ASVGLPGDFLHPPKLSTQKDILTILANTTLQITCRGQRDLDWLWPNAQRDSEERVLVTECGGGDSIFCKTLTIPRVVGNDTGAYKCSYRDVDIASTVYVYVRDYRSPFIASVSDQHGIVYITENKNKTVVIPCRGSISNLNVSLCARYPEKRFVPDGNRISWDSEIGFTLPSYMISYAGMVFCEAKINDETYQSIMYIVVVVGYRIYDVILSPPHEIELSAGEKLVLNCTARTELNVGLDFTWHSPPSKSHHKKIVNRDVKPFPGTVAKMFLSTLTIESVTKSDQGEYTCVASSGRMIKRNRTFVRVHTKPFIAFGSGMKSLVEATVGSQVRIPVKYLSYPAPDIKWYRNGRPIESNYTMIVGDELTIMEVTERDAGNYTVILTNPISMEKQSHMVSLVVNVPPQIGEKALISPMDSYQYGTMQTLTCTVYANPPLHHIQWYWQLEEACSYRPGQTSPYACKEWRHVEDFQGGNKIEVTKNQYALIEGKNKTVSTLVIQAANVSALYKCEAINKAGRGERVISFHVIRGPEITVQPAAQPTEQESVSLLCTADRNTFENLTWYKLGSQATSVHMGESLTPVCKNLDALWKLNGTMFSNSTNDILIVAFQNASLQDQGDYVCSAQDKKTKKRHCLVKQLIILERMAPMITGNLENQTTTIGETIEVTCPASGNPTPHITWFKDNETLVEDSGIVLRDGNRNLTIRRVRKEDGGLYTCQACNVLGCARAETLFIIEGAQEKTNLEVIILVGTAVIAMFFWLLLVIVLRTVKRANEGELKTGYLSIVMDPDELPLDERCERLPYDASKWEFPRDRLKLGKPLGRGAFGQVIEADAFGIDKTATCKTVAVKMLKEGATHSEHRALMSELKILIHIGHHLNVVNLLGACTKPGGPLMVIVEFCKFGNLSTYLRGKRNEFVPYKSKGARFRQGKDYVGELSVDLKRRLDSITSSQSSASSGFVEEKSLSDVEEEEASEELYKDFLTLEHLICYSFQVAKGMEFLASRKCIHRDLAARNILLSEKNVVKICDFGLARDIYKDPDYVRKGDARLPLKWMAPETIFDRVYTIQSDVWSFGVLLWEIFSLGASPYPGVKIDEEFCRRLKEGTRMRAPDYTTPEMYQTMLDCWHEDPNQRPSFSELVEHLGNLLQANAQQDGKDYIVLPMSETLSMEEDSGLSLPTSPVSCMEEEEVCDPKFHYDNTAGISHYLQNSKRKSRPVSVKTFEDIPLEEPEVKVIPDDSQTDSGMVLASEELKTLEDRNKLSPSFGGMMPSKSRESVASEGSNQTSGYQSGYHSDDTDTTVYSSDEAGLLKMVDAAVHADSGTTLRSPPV

SMILES: COc1cc2c(Nc3ccc(Br)cc3F)ncnc2cc1OCCn1ccnn1 [ZD4190]
- effect on VEGF stimulation of luciferase expression: affected luciferase expression in a dose-response manner
